Source: patent US11166460B2, “α-amino acrylate microbicide, and preparation method therefor and uses thereof” (priority 2017, dated 2021)
Converted amounts (≈) assume the structure as drawn. Read-outs that look alike come from different tables or passages of the source.

How the values were obtained:
[1] = test system: tobacco mosaic virus (TMV); assay: Anti-TMV curative activity (treatment mode), live friction inoculation on tobacco seedlings; format: in vivo; conditions: for inhibition at 100 µg/mL: Tobacco mosaic virus, read-out: Anti-TMV activity, Curative effect (inhibition), 100 μg/mL, tobacco seedlings, checked on seventh day
[2] = test system: tobacco mosaic virus (TMV); assay: Anti-TMV inactivation activity (inactivation mode), compound mixed with TMV before inoculation of tobacco leaves; format: in vivo; conditions: Tobacco mosaic virus, read-out: Anti-TMV activity, Inactivation effect (inhibition)
[3] = test system: tobacco mosaic virus (TMV); assay: Anti-TMV protective activity (protection mode), live friction inoculation on tobacco seedlings; format: in vivo; conditions: Tobacco mosaic virus, read-out: Anti-TMV activity, Protection effect (inhibition)
[4] = test system: tobacco mosaic virus (TMV); assay: Anti-TMV inducing activity (induction mode), tobacco seedlings; format: in vivo; conditions: Tobacco mosaic virus, read-out: Anti-TMV activity, Induction effect (inhibition), 100 μg/mL, tobacco seedlings
Alternaria solani = assay: Fungicidal activity, fungi growth rate method, AS; format: cell-based; conditions: Alternaria solani, 50 μg/mL
Botrytis cinerea = assay: Fungicidal activity, fungi growth rate method, BC; format: cell-based; conditions: Botrytis cinerea, 50 μg/mL
Cercospora arachidicola = assay: Fungicidal activity, fungi growth rate method, CA; format: cell-based; conditions: Mycosphaerella arachidis, 50 μg/mL
wheat Gibberella zeae = assay: microbe, parasite or virus in culture; format: cell-based; conditions: Fusarium graminearum
[5] = test system: Phytophthora infestans (Mont) de Bary; assay: microbe, parasite or virus in culture; format: cell-based; conditions: Phytophthora infestans
Physalospora piricola = assay: Fungicidal activity, fungi growth rate method, PP; format: cell-based; conditions: 50 μg/mL
Pellicularia sasakii = assay: Fungicidal activity, fungi growth rate method, PS; format: cell-based; conditions: 50 μg/mL
Rhizoctonia cerealis = assay: Fungicidal activity, fungi growth rate method, RC; format: cell-based; conditions: Ceratobasidium cereale, 50 μg/mL
Sclerotinia sclerotiorum = assay: microbe, parasite or virus in culture; format: cell-based; conditions: Sclerotinia sclerotiorum; for inhibition at 50 µg/mL: 50 μg/mL; for EC90: read-out: EC90 against S. sclerotiorum in vitro
[6] = read-out: Fungicidal activity, inhibition, AS
[7] = read-out: Fungicidal activity, inhibition, BC
[8] = read-out: Fungicidal activity, inhibition, CA
[9] = read-out: Fungicidal activity, inhibition, GZ
[10] = read-out: Fungicidal activity, inhibition, PI
[11] = read-out: Fungicidal activity, inhibition, PP
[12] = read-out: Fungicidal activity, inhibition, PS
[13] = read-out: Fungicidal activity, inhibition, RC
[14] = read-out: Fungicidal activity, inhibition, SS
[15] = read-out: Fungicidal activity (inhibition) against SS: Sclerotinia sclerotiorum
[16] = read-out: Fungicidal activity (inhibition) against BC: Botrytis cinerea
[17] = read-out: Fungicidal activity (inhibition) against PI: Phytophthora infestans (Mont) de Bary
[18] = read-out: Fungicidal activity (inhibition) against PS: Pellicularia sasakii
[19] = read-out: Fungicidal activity (inhibition) against RC: Rhizoctonia cerealis

Row | Compound | inhibition at 100 µg/mL [1] | inhibition at 100 µg/mL [2] | inhibition at 100 µg/mL [3] | inhibition at 100 µg/mL [4] | inhibition at 50 µg/mL (Alternaria solani; [6]) | inhibition at 50 µg/mL (Botrytis cinerea; [7]) | inhibition at 50 µg/mL (Cercospora arachidicola; [8]) | inhibition at 50 µg/mL (wheat Gibberella zeae; [9]) | inhibition at 50 µg/mL [5, 10] | inhibition at 50 µg/mL (Physalospora piricola; [11]) | inhibition at 50 µg/mL (Pellicularia sasakii; [12]) | inhibition at 50 µg/mL (Rhizoctonia cerealis; [13]) | inhibition at 50 µg/mL (Sclerotinia sclerotiorum; [14]) | melting point | inhibition at 50 µg/mL (Sclerotinia sclerotiorum; [15]) | inhibition at 50 µg/mL [5, 17] | inhibition at 50 µg/mL (Rhizoctonia cerealis; [19]) | also measured
1 | CC(C)(C)OC(=O)N1CCC(c2nc(C(=O)NCC(=O)O)cs2)CC1 [Compound 65, N-[[4-[2-[4-(1-Boc-piperidine)]thiazol]]formyl]ethanoic acid] | 0% | 40% | 39% | 38% | 9% | 10% | 10% | 16% | 18% | 3% | 9% | 10% | 67% | 183 to 185 °C | – | – | – | –
2 | CC(C)(C)OC(=O)N1CCC(c2nc(/C=C(\NC(=O)c3ccccc3)C(=O)NCc3ccc(Br)cc3)cs2)CC1 [Compound 47, N-[(1Z)-2-[4-[2-[4-(1-Boc-piperidine)]thiazol]]-1-[[(4-bromophenylmethyl)amino]carbonyl]ethenyl]benzamide] | 56% | 0% | 41% | 53% | 36% | 32% | 22% | 22% | 20% | 22% | 19% | 21% | 82% | 101 to 103 °C | 80 to 95% | – | – | –
3 | O=C(N/C(=C\c1ccccc1)C(=O)N1CCC(O)(c2ccc(Br)cc2)CC1)C1CC1 [Compound 1, (Z)-N-[1-[[4-(4-bromophenyl)-4-hydroxy-1-piperidinyl]carbonyl]-2-phenylethenyl]cyclopropanecarboxamide] | 53% | 83% | 48% | 11% | 21% | 21% | 16% | 26% | 27% | 10% | 14% | 29% | 83% | 163 to 164 °C | 80 to 95% | – | – | Anti-TMV activity, Curative effect (inhibition) ([1]; 100 μg/mL, tobacco seedlings, checked on seventh day): 54%
4 | O=C(N/C(=C\c1ccccc1)C(=O)N1CCOCC1)c1ccccc1 [Compound 38, (Z)-N-[1-(4-morpholinylcarbonyl)-2-phenylethenyl]benzamide] | 0% | 0% | 38% | 46% | 8% | 4% | 7% | 6% | 11% | 0% | 13% | 9% | 77% | 147 to 149 °C | 77% | < 25% | < 20% | inhibition at 50 µg/mL (Alternaria solani; read-out: Fungicidal activity (inhibition) against AS: Alternaria solani): < 30%; inhibition at 50 µg/mL (Botrytis cinerea; [16]): ≤ 20%; inhibition at 50 µg/mL (Cercospora arachidicola; read-out: Fungicidal activity (inhibition) against CA: Cercospora arachidicola): < 25%; inhibition at 50 µg/mL (wheat Gibberella zeae; read-out: Fungicidal activity (inhibition) against GZ: wheat Gibberella zeae): < 45%; inhibition at 50 µg/mL (Physalospora piricola; read-out: Fungicidal activity (inhibition) against PP: Physalospora piricola): < 20%; inhibition at 50 µg/mL (Pellicularia sasakii; [18]): < 30%
5 | CC(C)(C)OC(=O)N1CCC(C(=O)N/C(=C\c2ccccc2)C(=O)N2CCC(O)(c3ccc(Br)cc3)CC2)CC1 [Compound 3, (Z)-N-[1-[[4-(4-bromophenyl)-4-hydroxy-1-piperidinyl]carbonyl]-2-phenylethenyl]-1-Boc-piperidine-4-carboxamide] | 59% | 14% | 51% | 0% | 32% | 24% | 25% | 34% | 19% | 21% | 23% | 26% | 75% | 145 to 147 °C | 60 to 80% | – | – | –
6 | Cc1snnc1/C=C(\NC(=O)c1ccccc1)C(=O)N1CCC(O)(c2ccc(Br)cc2)CC1 [Compound 28, (Z)-N-[1-[[4-(4-bromophenyl)-4-hydroxy-1-piperidinyl]carbonyl]-2-[4-(5-methyl-1,2,3-thiadiazol)]ethenyl]benzamide] | 43% | 3% | 36% | 4% | 32% | 24% | 27% | 77% | 19% | 29% | 27% | 62% | 75% | 231 to 233 °C | 60 to 80% | ~20% | 62% | inhibition at 50 µg/mL (Botrytis cinerea; [16]): ~20%; inhibition at 50 µg/mL (Pellicularia sasakii; [18]): ~20%
7 | O=C(NCc1ccc(Cl)cc1)/C(=C/c1ccccc1)NC(=O)c1ccccc1 [Compound 56, N-[(1Z)-2-phenyl-1-[[(4-chlorophenylmethyl)amino]carbonyl]ethenyl]benzamide] | 30% | 58% | 0% | 4% | 24% | 22% | 14% | 19% | 5% | 4% | 12% | 17% | 100% | 202 to 204 °C | 100% | – | – | EC90 (Sclerotinia sclerotiorum): 1260 µg/mL (≈ 3210 µM)
8 | O=C(O)/C(=C/c1ccccc1)NC(=O)C1CC1 [Compound 67, (Z)-2-cyclopropanoylamino-3-phenylpropenoic acid] | 52% | 57% | 78% | 34% | 20% | 19% | 15% | 23% | 13% | 3% | 6% | 10% | 67% | 193 to 195 °C | – | – | – | –
9 | CC(C)(C)OC(=O)N1CCC(c2nc(/C=C(\NC(=O)c3ccccc3)C(=O)NCC(F)F)cs2)CC1 [Compound 43, (Z)-N-[1-[(2,2-difluoroethylamino)carbonyl]-2-[4-[2-[4-(1-Boc-piperidine)]thiazol]]ethenyl]benzamide] | 30% | 27% | 2% | 31% | 43% | 40% | 32% | 36% | 38% | 40% | 39% | 38% | 96% | 164 to 165 °C | – | 38% | 38% | EC90 (Sclerotinia sclerotiorum): 154 µg/mL (≈ 295 µM)
10 | O=C(NCc1cccc(Br)c1)/C(=C/c1ccccc1)NC(=O)c1ccccc1 [Compound 51, N-[(1Z)-2-phenyl-1-[[(3-bromophenylmethyl)amino]carbonyl]ethenyl]benzamide] | 12% | 69% | 11% | 14% | 25% | 24% | 15% | 43% | 21% | 18% | 14% | 28% | 50% | 180 to 182 °C | – | – | – | –
